Measurements published in patent US11260084B2 (priority 2017, dated 2022).

Key:
[1] = system: Clostridium perfringens, Eimeria acervulina, and Eimeria maxima, and Eimeria tenella; format: in vivo, Ross 708 broilers; settings: at 21-days and 42-days of age; versus control
[2] = system: Eimeria acervulina, Eimeria maxima and Eimeria tenella; experiment: Example 8 broiler study under severe coccidiosis challenge conditions; format: in vivo, Ross 708 broiler chicks; settings: 28-day mortality; compared to the challenged control
Excerpt: EXAMPLE 8 of the present disclosure describes a study to evaluate the efficacy of a combination of xylanase (10 U/g feed), B. licheniformis strain PWD-1 (1×10^5 CFU/g feed), and B. amyloliquefaciens strain Ba-BPD1 (5×10^5 CFU/g feed) referred to as “Xyl+B+Y”, to minimize the severity of gut lesions and improve overall livability of broiler chickens fed standard corn-soy diets and reared under severe coccidiosis challenge conditions. In the study chicks were twice challenged with a live vaccine containing the live oocysts of highly-immunogenic, coccidiostat-sensitive strains of Eimeria acervulina, Eimeria maxima and Eimeria tenella by oral gavage and the Xyl+B+Y combination was compared to salinomycin sodium which is referred to as “Coccidiostat” in FIG. 13. […]
MATERIALS AND METHODS: Four hundred male Ross 708 broiler chicks were randomly assigned to 1 of 4 dietary treatments, with 7 replicate battery cages per treatment (except Treatment 1, the unchallenged positive control, which contained 4 replicate cages), and 16 birds per cage. […] The key parameters evaluated were upper-tract intestinal lesion scores, middle-tract intestinal lesion scores, mortality/livability, and feed conversion ratio (FCR).

| Compound | effect on mortality [1] | reduction of mortality [2] [%] |
| --- | --- | --- |
| bacitracin methylene disalicylate [AGP] | did not significantly improve |  |
| CC[C@@H](C(=O)[C@@H](C)[C@@H](O)[C@H](C)[C@@H]1O[C@@H]([C@@H](CC)C(=O)O)CC[C@@H]1C)[C@H]1O[C@]2(C=C[C@@H](O)[C@]3(CC[C@@](C)([C@H]4CC[C@](O)(CC)[C@H](C)O4)O3)O2)[C@H](C)C[C@@H]1C [Coccidiostat, salinomycin sodium] |  | 25 |
